Reference: ChEMBL document CHEMBL1201862, “PubChem BioAssay data set” (2004)
The source made the active and inactive calls.

Legend:
Exodeoxyribonuclease V = molecular target: T1, Exodeoxyribonuclease V (Escherichia coli (strain K12), UniProt P04993+P07648+P08394); assay: E. coli RecBCD inhibitors, dose response, counter-screen for AddAB inhibitor project, absorbance, V66 E. coli, mutant T4 phage (AID 492957); type: functional, cell-based, Escherichia coli str. K-12 substr. MG1655
T1 sequence (P04993 whole entry): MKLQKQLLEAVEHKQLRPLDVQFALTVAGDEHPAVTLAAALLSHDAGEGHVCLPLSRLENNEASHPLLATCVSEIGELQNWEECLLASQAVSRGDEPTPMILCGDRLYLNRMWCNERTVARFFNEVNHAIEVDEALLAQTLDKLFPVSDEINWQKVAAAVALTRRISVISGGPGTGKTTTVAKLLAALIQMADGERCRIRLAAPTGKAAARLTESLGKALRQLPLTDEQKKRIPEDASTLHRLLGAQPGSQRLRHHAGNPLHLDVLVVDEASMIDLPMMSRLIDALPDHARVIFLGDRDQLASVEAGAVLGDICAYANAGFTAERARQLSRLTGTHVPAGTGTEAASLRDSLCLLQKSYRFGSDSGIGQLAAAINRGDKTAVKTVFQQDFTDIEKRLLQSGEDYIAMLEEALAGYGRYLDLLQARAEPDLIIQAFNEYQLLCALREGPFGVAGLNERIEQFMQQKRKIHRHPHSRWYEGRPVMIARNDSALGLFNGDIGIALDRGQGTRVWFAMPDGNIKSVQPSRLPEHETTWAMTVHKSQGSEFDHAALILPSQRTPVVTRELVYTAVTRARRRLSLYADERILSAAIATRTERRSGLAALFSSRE
T1 sequence (P07648 whole entry): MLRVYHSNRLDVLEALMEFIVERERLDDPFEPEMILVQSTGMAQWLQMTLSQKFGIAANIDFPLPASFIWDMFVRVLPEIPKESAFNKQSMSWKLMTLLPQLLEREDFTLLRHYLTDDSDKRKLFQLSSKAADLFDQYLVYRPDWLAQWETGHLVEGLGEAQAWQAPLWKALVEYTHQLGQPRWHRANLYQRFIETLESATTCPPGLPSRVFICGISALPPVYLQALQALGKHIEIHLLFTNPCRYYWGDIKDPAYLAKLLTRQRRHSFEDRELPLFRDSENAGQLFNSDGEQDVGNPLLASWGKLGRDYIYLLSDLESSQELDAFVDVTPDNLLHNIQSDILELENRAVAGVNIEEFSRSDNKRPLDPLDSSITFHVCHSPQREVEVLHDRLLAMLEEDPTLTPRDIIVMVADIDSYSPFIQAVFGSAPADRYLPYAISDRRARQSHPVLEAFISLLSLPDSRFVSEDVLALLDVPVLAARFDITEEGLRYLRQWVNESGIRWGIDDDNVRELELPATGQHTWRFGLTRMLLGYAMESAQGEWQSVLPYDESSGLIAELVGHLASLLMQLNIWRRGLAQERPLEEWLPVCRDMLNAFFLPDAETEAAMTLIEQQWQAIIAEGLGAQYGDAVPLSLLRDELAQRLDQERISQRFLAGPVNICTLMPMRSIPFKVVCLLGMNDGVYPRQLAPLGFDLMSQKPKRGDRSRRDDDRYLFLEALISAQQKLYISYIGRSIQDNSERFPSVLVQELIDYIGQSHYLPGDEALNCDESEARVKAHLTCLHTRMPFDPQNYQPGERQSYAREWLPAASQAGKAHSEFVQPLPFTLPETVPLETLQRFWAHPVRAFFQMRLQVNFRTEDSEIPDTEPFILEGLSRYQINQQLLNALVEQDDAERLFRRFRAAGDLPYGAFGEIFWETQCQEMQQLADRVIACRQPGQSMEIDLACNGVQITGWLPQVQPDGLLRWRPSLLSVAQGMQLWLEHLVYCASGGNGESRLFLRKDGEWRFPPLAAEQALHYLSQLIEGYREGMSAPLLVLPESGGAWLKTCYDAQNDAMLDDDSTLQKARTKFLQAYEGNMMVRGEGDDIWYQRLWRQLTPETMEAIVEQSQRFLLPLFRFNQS
T1 sequence (P08394 whole entry): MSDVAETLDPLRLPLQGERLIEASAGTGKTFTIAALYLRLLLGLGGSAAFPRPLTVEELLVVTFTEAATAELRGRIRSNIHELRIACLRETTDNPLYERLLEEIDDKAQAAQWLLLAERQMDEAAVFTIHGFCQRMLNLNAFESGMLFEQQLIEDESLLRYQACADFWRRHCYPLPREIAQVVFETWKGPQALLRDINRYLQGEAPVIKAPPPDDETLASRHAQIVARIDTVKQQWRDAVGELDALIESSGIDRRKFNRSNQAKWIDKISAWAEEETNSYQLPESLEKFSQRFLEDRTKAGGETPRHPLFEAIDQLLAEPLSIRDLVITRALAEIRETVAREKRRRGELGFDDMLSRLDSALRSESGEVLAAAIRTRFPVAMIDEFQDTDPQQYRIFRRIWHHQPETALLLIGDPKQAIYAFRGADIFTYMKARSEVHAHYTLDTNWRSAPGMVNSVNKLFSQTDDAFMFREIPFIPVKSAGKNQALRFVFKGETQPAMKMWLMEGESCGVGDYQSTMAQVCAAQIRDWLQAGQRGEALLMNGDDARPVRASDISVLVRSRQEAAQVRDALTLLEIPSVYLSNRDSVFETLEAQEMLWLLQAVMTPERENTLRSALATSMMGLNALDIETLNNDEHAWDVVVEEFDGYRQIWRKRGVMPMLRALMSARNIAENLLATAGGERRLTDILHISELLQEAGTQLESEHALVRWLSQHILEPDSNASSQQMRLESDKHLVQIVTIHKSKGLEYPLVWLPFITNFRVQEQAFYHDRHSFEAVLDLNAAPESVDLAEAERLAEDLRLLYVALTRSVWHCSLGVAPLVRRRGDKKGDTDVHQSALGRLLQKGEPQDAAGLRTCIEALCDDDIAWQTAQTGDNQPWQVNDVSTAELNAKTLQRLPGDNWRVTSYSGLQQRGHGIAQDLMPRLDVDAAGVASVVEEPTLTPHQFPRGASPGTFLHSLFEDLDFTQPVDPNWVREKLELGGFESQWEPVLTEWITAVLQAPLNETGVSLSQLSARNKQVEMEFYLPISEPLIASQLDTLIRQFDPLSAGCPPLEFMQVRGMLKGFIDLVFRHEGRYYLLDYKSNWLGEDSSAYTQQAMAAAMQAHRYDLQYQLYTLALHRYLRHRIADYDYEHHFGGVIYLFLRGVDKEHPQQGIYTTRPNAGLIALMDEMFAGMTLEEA

[1] = Counterscreen for AddAB inhibitors: absorbance-based bacterial cell-based high throughput dose response assay for inhibitors of bacterial viability. [Related pubchem assays (depositor defined):AID435030, AID449728, AID449731, AID488942, AID488955, AID488956]; type: functional
Albumin = Albumin (Bos taurus, UniProt P02769); assay: Counterscreen for inhibitors of T-cell receptor (TCR)-CD3 interaction: Fluorescence-based biochemical high throughput dose response assay to identify inhibitors of T-cell receptor (TCR)-CD3 interaction using a TAMRA-labeled BSA probe.; type: functional
SUMO-activating enzyme = SUMO-activating enzyme (Homo sapiens, UniProt Q9UBT2); assay: SUMOylation inhibitor hit validation, confirmation, SUMOylation inhibitor project, biochemical, AlphaScreen (AID 2018); type: functional
Cannabinoid receptor 2 [2] = molecular target: T2, Cannabinoid receptor 2 (Homo sapiens, UniProt P34972); assay: SAR analysis of agonists of the Cannabinoid Receptor 2 using an Image-Based Assay - Set 3. [Related pubchem assays (depositor defined):AID2013, AID2026]; type: functional
Cannabinoid receptor 2 [3] = molecular target: T2, Cannabinoid receptor 2; assay: SAR analysis of antagonists of the Cannabinoid Receptor 2 using an Image-Based Assay. [Related pubchem assays (depositor defined):AID2013, AID2026]; type: functional
[4] = molecular target: T3, G-protein coupled receptor 55 (Homo sapiens, UniProt Q9Y2T6); assay: GPR55 antagonist potency of analogs, SAR follow-up, imaging, U2OS, beta-arrestin-GFP, LPI agonist, set 2 (AID 2820); type: functional
Cannabinoid receptor 1 [5] = molecular target: T4, Cannabinoid receptor 1 (Homo sapiens, UniProt P21554); assay: SAR analysis of agonists of the Cannabinoid Receptor 1 using an Image-Based Assay - Set 2. [Related pubchem assays (depositor defined):AID2013, AID2026]; type: functional
Cannabinoid receptor 1 [6] = molecular target: T4, Cannabinoid receptor 1; assay: SAR analysis of antagonists of the Cannabinoid Receptor 1 using an Image-Based Assay - Set 2. [Related pubchem assays (depositor defined):AID2013, AID2026]; type: functional
[7] = molecular target: T5, G-protein coupled receptor 35 (Homo sapiens, UniProt Q9HC97); assay: SAR analysis of Antagonists of the GPR35 Receptor using an Image-Based Assay - Set 3. [Related pubchem assays (depositor defined):AID2013, AID2026]; type: functional
Cannabinoid receptor 2 [8] = molecular target: T2, Cannabinoid receptor 2; assay: SAR analysis of agonists of the Cannabinoid Receptor 2 using an Image-Based Assay. [Related pubchem assays (depositor defined):AID2013, AID2026]; type: functional
[9] = Shn3 3'UTR reporter inhibitors, dose response, cell-based, Clone20 osteoblasts, firefly luciferase, cherry-picked (AID 624132); type: functional;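 note: firefly luciferase luminescence from reporter carrying the Shn3 3'UTR in osteoblasts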
[10] = HepG2 cell cytotoxicity, dose response, cytotoxicity control for Shn3 inhibitor project, CellTiter-Glo, cherry-picked (AID 624134); type: functional, cell-based
[11] = control 3'UTR Renilla luciferase suppression, dose response, counter-screen for Shn3 inhibitor project, cell-based, Clone20-Shn3RL, cherry-picked (AID 624133); type: functional
INS1 = assay: beta cell apoptosis inhibitors, cytokine rescue, dose response, luminescence, retest (AID 449756); type: functional, cell-based; details: Rattus norvegicus;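 note: cell death triggered by IL-1 beta plus TNF-alpha plus IFN-gamma mixture; protective hits raise ATP signal compared with cytokine alone wells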
[12] = molecular target: T5, G-protein coupled receptor 35; assay: SAR analysis of Agonists of the GPR35 Receptor using an Image-Based Assay - Set 2. [Related pubchem assays (depositor defined):AID2013, AID2026]; type: functional
[13] = molecular target: T3, G-protein coupled receptor 55; assay: GPR55 antagonists blocking LPI-driven arrestin recruitment, primary screen, imaging, U2OS, beta-arrestin-GFP, LPI agonist (AID 2013); type: functional;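 note: antagonist potency measured as reduced agonist-driven arrestin aggregation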
Cannabinoid receptor 1 [14] = molecular target: T4, Cannabinoid receptor 1; assay: SAR analysis of antagonists of the Cannabinoid Receptor 1 using an Image-Based Assay - Set 4. [Related pubchem assays (depositor defined):AID2013, AID2026]; type: functional
[15] = molecular target: T3, G-protein coupled receptor 55; assay: SAR Analysis of Selective Antagonists of GPR55 using an Image-Based Assay - Set 4. [Related pubchem assays (depositor defined):AID2013, AID2026]; type: functional
Cannabinoid receptor 2 [16] = molecular target: T2, Cannabinoid receptor 2; assay: SAR analysis of antagonists of the Cannabinoid Receptor 2 using an Image-Based Assay - Set 3. [Related pubchem assays (depositor defined):AID2013, AID2026]; type: functional
[17] = molecular target: T6, E3 ubiquitin-protein ligase XIAP (Homo sapiens, UniProt P98170); assay: SAR analysis of Antagonists of IAP-family anti-apoptotic proteins. [Related pubchem assays (depositor defined):AID1018, AID1449, AID1513, AID1514, AID1638]
[18] = molecular target: T6, E3 ubiquitin-protein ligase XIAP; assay: SAR analysis of Antagonists of XIAP-Bir3 domain of IAP-family anti-apoptotic proteins. [Related pubchem assays (depositor defined):AID1018, AID1449, AID1513, AID1514, AID1638]
[19] = molecular target: T7, Alkaline phosphatase, tissue-nonspecific isozyme (Homo sapiens, UniProt P05186); assay: TNAP enzyme activators, dose response, selectivity assay for mouse IAP activator project, biochemical, TNAP isozyme, mouse IAP uHTS hits (AID 488880); type: functional
T7 sequence (P05186 whole entry): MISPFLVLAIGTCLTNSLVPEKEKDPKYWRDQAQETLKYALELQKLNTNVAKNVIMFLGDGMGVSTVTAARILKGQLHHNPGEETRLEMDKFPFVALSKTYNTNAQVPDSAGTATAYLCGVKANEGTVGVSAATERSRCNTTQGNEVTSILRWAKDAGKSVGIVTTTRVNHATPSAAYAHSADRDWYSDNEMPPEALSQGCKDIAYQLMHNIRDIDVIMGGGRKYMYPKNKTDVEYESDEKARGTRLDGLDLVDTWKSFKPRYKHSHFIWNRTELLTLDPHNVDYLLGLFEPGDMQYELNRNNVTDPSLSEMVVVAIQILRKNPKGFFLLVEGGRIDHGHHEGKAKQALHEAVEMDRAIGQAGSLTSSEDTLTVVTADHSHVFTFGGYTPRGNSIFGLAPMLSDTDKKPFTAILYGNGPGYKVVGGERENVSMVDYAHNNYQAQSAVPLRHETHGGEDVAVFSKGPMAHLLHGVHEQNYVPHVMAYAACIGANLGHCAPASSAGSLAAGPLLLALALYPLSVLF

[20] = molecular target: Intestinal-type alkaline phosphatase (Mus musculus, UniProt P24822); assay: mouse intestinal alkaline phosphatase activators, dose response, biochemical, luminescence, uHTS hits (AID 488783); type: functional
[21] = molecular target: Intestinal-type alkaline phosphatase (Homo sapiens, UniProt P09923); assay: activation of human intestinal alkaline phosphatase – biochemical, dose response (AID 488873); type: functional
Chain of Intestinal-type alkaline phosphatase (Homo sapiens, UniProt P09923) (P09923 whole entry): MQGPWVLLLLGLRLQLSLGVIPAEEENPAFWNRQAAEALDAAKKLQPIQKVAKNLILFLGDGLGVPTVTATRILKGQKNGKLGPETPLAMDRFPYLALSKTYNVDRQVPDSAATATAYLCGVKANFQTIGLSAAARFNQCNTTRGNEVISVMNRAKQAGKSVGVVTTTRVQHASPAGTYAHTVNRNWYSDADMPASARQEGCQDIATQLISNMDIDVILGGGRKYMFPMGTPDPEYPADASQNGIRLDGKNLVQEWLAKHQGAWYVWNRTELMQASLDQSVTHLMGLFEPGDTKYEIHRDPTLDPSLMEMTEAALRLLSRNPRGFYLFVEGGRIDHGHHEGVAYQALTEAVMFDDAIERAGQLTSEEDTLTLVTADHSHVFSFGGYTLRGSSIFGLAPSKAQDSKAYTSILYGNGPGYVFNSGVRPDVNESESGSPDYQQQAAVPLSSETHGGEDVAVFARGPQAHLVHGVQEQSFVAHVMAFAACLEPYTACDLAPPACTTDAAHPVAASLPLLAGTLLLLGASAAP

T2 sequence (P34972 whole entry): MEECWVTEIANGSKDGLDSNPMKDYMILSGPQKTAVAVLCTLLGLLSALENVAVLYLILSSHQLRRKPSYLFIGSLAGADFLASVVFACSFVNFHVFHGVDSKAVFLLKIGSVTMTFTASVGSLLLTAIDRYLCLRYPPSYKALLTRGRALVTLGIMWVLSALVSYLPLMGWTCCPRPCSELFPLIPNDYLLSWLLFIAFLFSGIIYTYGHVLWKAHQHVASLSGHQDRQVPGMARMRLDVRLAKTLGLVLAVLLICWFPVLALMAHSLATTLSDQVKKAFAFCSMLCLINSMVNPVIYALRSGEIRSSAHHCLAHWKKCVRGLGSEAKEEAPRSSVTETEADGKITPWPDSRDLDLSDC
T3 sequence (Q9Y2T6 whole entry): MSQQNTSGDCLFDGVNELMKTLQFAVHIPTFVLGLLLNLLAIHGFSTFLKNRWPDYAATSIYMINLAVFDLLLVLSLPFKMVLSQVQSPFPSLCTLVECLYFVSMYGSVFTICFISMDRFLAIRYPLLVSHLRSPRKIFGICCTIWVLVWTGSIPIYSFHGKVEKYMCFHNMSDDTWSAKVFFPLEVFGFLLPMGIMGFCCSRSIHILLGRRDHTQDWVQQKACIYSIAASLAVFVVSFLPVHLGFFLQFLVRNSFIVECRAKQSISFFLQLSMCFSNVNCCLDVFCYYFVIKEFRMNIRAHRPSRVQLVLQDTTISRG
T4 sequence (P21554 whole entry): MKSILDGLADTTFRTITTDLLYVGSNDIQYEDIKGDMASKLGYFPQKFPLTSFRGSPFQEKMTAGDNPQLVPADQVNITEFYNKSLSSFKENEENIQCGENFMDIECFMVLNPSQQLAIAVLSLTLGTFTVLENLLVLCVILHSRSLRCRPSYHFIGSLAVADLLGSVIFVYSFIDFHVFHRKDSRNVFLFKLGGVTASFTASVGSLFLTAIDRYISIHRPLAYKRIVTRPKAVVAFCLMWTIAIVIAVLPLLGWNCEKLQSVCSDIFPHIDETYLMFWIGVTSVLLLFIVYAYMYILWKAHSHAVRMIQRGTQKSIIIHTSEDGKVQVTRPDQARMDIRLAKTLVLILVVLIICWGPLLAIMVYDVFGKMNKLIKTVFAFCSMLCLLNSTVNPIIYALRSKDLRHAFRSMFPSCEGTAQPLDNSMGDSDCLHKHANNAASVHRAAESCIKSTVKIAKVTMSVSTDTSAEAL
T6 sequence (P98170 whole entry, the tested form may be a part): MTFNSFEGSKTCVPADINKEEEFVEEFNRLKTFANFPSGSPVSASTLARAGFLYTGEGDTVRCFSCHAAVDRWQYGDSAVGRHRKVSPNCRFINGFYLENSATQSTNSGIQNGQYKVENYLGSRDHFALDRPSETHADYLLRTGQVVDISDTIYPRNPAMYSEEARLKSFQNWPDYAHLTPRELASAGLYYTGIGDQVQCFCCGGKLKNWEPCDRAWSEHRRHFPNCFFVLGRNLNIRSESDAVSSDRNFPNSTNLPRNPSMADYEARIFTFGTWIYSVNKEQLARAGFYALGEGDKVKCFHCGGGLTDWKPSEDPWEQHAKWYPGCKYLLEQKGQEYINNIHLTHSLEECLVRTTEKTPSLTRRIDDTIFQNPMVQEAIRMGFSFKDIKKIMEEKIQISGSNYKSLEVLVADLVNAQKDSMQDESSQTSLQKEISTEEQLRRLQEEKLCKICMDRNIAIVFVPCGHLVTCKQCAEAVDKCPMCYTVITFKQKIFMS
T5 sequence (Q9HC97 whole entry): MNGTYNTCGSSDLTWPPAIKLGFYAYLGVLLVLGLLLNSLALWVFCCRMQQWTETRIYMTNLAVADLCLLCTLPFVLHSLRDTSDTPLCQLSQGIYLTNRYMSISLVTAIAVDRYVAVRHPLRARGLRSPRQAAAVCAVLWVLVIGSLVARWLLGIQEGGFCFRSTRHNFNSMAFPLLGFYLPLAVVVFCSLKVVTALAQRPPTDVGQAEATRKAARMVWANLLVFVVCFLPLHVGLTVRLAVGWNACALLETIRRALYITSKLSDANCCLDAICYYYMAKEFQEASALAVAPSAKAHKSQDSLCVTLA
Chain of SUMO-activating enzyme (Q9UBE0 whole entry): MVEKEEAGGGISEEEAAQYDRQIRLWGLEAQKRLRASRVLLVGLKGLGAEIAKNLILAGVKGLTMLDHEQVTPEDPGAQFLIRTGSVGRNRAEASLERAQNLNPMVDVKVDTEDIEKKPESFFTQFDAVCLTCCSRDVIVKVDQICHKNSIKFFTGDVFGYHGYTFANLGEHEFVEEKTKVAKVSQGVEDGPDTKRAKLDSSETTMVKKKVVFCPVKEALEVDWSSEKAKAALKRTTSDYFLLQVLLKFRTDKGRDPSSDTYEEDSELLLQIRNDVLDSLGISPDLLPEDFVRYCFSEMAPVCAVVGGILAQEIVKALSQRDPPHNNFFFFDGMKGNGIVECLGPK
Chain of SUMO-activating enzyme (Q9UBT2 whole entry): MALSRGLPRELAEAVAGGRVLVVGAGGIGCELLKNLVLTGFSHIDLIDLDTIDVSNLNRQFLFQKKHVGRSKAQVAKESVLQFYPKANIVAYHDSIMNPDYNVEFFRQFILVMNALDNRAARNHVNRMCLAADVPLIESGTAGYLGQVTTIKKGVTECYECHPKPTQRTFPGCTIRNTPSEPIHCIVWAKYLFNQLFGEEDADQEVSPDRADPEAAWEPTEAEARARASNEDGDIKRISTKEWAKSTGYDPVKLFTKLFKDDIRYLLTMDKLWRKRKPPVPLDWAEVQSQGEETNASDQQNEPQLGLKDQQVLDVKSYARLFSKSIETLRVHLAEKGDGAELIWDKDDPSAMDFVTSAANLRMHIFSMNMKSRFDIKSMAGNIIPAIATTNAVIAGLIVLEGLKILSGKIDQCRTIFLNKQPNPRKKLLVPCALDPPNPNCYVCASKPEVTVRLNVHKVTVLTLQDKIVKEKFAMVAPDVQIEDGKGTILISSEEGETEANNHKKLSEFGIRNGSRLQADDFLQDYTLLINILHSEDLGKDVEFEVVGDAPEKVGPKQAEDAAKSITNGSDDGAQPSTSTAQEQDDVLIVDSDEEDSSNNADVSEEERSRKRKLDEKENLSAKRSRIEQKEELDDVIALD
Chain of Albumin (P02769 whole entry): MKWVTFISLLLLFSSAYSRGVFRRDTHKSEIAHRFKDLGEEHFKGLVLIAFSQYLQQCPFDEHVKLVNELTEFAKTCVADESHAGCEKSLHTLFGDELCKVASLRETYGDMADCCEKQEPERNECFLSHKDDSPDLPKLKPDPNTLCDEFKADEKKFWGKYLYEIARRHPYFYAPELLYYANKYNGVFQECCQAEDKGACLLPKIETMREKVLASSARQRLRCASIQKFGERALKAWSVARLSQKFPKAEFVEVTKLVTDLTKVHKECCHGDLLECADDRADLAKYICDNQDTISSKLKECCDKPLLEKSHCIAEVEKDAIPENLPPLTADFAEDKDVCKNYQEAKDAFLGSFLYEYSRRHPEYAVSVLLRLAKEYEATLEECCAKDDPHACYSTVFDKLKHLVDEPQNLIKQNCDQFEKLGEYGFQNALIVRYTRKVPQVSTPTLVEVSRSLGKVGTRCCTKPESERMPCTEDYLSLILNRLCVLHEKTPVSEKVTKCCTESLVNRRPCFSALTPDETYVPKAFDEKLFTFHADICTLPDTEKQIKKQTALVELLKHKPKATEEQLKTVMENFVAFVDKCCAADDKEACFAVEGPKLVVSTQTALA
Chain of Intestinal-type alkaline phosphatase (Mus musculus, UniProt P24822) (P24822 whole entry): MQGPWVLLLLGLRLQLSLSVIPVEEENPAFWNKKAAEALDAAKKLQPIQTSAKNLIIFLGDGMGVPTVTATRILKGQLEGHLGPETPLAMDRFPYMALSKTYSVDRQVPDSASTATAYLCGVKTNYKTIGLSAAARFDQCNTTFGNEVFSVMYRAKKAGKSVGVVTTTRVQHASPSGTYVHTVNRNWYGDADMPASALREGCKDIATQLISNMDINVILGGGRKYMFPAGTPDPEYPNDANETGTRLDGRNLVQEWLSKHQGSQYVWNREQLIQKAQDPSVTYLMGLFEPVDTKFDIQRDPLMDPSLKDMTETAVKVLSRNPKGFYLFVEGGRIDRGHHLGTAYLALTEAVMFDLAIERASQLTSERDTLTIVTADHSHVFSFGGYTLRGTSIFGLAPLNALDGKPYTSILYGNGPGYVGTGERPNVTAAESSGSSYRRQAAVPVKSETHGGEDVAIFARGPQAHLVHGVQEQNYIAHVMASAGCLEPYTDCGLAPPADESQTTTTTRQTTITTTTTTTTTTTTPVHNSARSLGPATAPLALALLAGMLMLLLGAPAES

O=C(CN1C(=O)S/C(=C\c2ccccc2)C1=O)NNC(=O)c1ccccc1O
IC50 (Exodeoxyribonuclease V): > 119 µM (inactive)
IC50 [1]: > 119 µM (inactive)
IC50 (Albumin): > 94.1 µM (inactive)
IC50 (SUMO-activating enzyme): 38.2 µM (active)

Cc1nc(N2CCN(C(=O)c3ccco3)CC2)c2c3c(sc2n1)CC(C)CC3 (stereo not given)
EC50 (Cannabinoid receptor 2 [2]): 28.2 µM (inactive)
IC50 (Cannabinoid receptor 2 [3]): > 32 µM (inactive)
IC50 [4]: 0.342 µM (active)
EC50 (Cannabinoid receptor 1 [5]): > 32 µM (inactive)
IC50 (Cannabinoid receptor 1 [6]): > 32 µM (inactive)
IC50 [7]: > 32 µM (inactive)
EC50 (Cannabinoid receptor 2 [8]): > 32 µM (inactive)
AC50 [9]: 2.33 µM (active)
AC50 [10]: 50.5 µM (active)
AC50 [11]: 4.08 µM (active)
AC50 (INS1): 6.56 µM (active)
EC50 [12]: > 32 µM (inactive)
IC50 [13]: 0.653 µM (active)
IC50 (Cannabinoid receptor 1 [14]): 3.17 µM (active)
IC50 [15]: 0.527 µM (active)
IC50 (Cannabinoid receptor 2 [16]): > 32 µM (inactive)

CN[C@@H](C)C(=O)NC1CCCN([C@@H](C)C(=O)NC2CCc3ccccc3C2)C1=O (stereo not given in full)
IC50 [17]: > 100 µM (inactive)
IC50 [18]: > 100 µM (inactive)

Cc1ccc(NS(=O)(=O)c2ccc3nc(O)oc3c2)c(C)c1
EC50 [19]: 58.7 µM (active)
EC50 [20]: 62.7 µM (active)
EC50 [21]: 60.3 µM (active)
